Source: ChEMBL document CHEMBL1201862, “PubChem BioAssay data set” (2004)
Values joined by “and” are separate entries in the source; they are usually repeats but may differ in a detail not shown here. Identical values can stand only once.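 Protocol summary: plate cells (96-well), add compound at 5 concentrations, incubate 48 h, interpolate endpoints linearly. Here, GI50 denotes the concentration required for 50% inhibition of growth.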 Active and inactive are the calls of the source. Cut-off read from the data, not from the text of the source: active = GI50 up to about 1.1 µM and inactive = higher.

How the values were obtained:
Assay in all cases: DTP human tumour cell line panel, 48 h
SF-295 = system: SF-295
SF-539 = system: SF-539
PC-3 = system: PC-3
HCT-116 = system: HCT-116
SK-OV-3 = system: SK-OV-3
SK-MEL-28 = system: SK-MEL-28
NCI/ADR-RES = system: NCI/ADR-RES
HL-60 = system: HL-60
Malme-3M = system: Malme-3M
SW-620 = system: SW-620
MDA-N = system: MDA-N
UACC-257 = system: UACC-257
SNB-19 = system: SNB-19
NCI-H460 = system: NCI-H460
SNB-75 = system: SNB-75
HOP-62 = system: HOP-62

Measured: GI50

CC1CC/C(=C\c2ccc(F)cc2)C2=C1C(c1ccc(F)cc1)NC(=S)N2 (stereo not given)
inactive: SF-295 54.7 µM | SF-539 > 100 µM | PC-3 30 µM | HCT-116 32.9 µM | SK-OV-3 > 100 µM | SK-MEL-28 88.3 µM | NCI/ADR-RES 53.6 µM | HL-60 38.5 µM | Malme-3M 36.7 µM | SW-620 80.4 µM | MDA-N 67.8 µM | UACC-257 43.2 µM | SNB-19 > 100 µM | NCI-H460 20.4 µM

O=C(NN=C1CCN(Cc2ccccc2)CC1)C(O)(c1ccccc1)c1ccccc1
inactive: SF-295 > 100 µM | SF-539 > 100 µM | HCT-116 > 100 µM | SK-OV-3 > 100 µM | SK-MEL-28 > 100 µM | NCI/ADR-RES > 100 µM | HL-60 > 100 µM | Malme-3M > 100 µM | SW-620 > 100 µM | SNB-75 > 100 µM | UACC-257 > 100 µM | HOP-62 > 100 µM | SNB-19 > 100 µM

CC(=O)NC(Cc1ccc(OP(=O)(OCc2ccc([N+](=O)[O-])o2)N(C)CCCCCl)cc1)C(=O)NC(C)c1ccc(OCC2CCCCC2)c(C(N)=O)c1 (stereo not given)
inactive: SF-295 4.74 µM | SF-539 2.08 µM | PC-3 2.79 µM | HCT-116 2.36 µM | SK-OV-3 11.5 µM | SK-MEL-28 2.12 µM | NCI/ADR-RES 31.2 µM | HL-60 2.79 µM | Malme-3M 1.88 µM | SW-620 4.11 µM | MDA-N 2.24 µM | UACC-257 1.93 µM | HOP-62 9.66 µM | SNB-19 3.9 µM | NCI-H460 3.44 µM

COC(=O)[C@@H]1CC(C(C[N+](=O)[O-])c2ccc(O[Si](C)(C)C(C)(C)C)cc2)C(=O)N1C(=O)OC(C)(C)C (stereo not given in full)
inactive: SF-295 > 100 µM and 59.2 µM | SF-539 > 100 µM | HCT-116 63.1 µM | SK-OV-3 > 100 µM | SK-MEL-28 > 100 µM | Malme-3M > 100 µM and 97.9 µM | SW-620 > 100 µM | MDA-N > 100 µM | SNB-75 > 100 µM | UACC-257 > 100 µM and 88.7 µM | HOP-62 > 100 µM | SNB-19 > 100 µM

NCCN1CCCCCc2ccccc21
inactive: SF-295 > 10 µM | SF-539 > 10 µM | PC-3 > 10 µM | HCT-116 > 10 µM | SK-OV-3 > 10 µM | SK-MEL-28 > 10 µM | NCI/ADR-RES > 10 µM | HL-60 > 10 µM | Malme-3M > 10 µM | SW-620 > 10 µM | SNB-75 > 10 µM | UACC-257 > 10 µM | HOP-62 > 10 µM | SNB-19 > 10 µM | NCI-H460 > 10 µM

COc1ccc(C(=O)/C=C/c2ccc(OCCSCCCCCCCCCCSCCOc3ccc(/C=C/C(=O)c4ccc(OC)c(OC)c4)cc3)cc2)cc1OC
inactive: SF-295 > 100 µM | SF-539 > 100 µM | PC-3 > 100 µM | HCT-116 > 100 µM | SK-OV-3 > 100 µM | SK-MEL-28 > 100 µM | HL-60 > 100 µM | Malme-3M > 100 µM | SW-620 > 100 µM | MDA-N > 100 µM | SNB-75 > 100 µM | UACC-257 > 100 µM | HOP-62 > 100 µM | NCI-H460 > 100 µM

CCC(CCCCC1CC[C@H]2CC(=O)C[C@@H]12)OC (stereo not given in full)
inactive: SF-295 > 100 µM | SF-539 > 100 µM | HCT-116 > 100 µM | SK-OV-3 > 100 µM | SK-MEL-28 > 100 µM | NCI/ADR-RES 71.1 µM | HL-60 36.7 µM | SW-620 > 100 µM | SNB-75 > 100 µM | UACC-257 72.3 µM | SNB-19 > 100 µM | NCI-H460 > 100 µM
